Source: patent US20200283734A1, “REPROGRAMMING OF A DIFFERENTIATED CELL TO AN UNDIFFERENTIATED CELL USING EXOSOME” (AGENCY FOR SCIENCE, TECHNOLOGY AND RESEARCH, priority 2017, published 2020)

Columns and labels:
MCF7 EX-iCSCs = assay: Drug resistance assay (Alamar Blue cell viability), MCF7; format: cell-based; settings: for drug resistance characteristics of EX-iCSCs towards cancer drugs: MCF7 EX-iCSCs (FIG. 17)
Experimental: (§1) H7-exosome treated and non-treated A431 and MCF7 cancer cells were seeded at a density of 3×10^3 cells per well in a 96-well plate, in their respective medium. The anticancer drugs, cisplatin, doxorubicin and sunitinib were then added in concentration series ranging from 0.1 to 1000, 0.001 to 10, and 0.1 to 1000 μg/mL, respectively. After time periods of 24, 48 and 72 hours, the cells were subjected to an Alamar Blue assay for cell viability.
(§2) Drug resistance has been associated with stem cell-like traits in cancer cells. The MCF7 and A431 cell lines were treated with exosomes to induce EX-iCSCs, following which they were subjected to viability (Alamar Blue) assays (FIG. 16, FIG. 17).

A431 EX-iCSCs = assay: Drug resistance assay (Alamar Blue cell viability), A431; format: cell-based; settings: A431 EX-iCSCs (FIG. 16)
Experimental: as §1, §2

SMILES | drug resistance characteristics of EX-iCSCs towards cancer drugs (MCF7 EX-iCSCs) | drug resistance characteristics of EX-iCSCs towards cancer drugs (A431 EX-iCSCs) | viability of exosome-treated cells under drug compared to non-treated cells (MCF7 EX-iCSCs; MCF7, H7-exosome treated, all time points (24, 48 and 72 hours))
N.N.[Cl][Pt][Cl] [cisplatin] | showed drug resistance characteristics | showed drug resistance characteristics | –
COc1cccc2c1C(=O)c1c(O)c3c(c(O)c1C2=O)C[C@@](O)(C(=O)CO)C[C@@H]3O[C@H]1C[C@H](N)[C@H](O)[C@H](C)O1 [doxorubicin] | showed drug resistance characteristics | showed drug resistance characteristics | significantly higher viability
